Laboratory results as given in paper PMC8138767, “Intrinsically disordered substrates dictate SPOP subnuclear localization and ubiquitination activity” (The Journal of Biological Chemistry, 2021).
Where no end group is shown, it is not given here.

Tests used:
[1] = target: T1, SPOP–MATH (residues 28–166) (Homo sapiens, UniProt O43791); assay: Competition fluorescence anisotropy, displacement of f-Puc from SPOP–MATH; type: binding; conditions: competition FA; 40 nM f-Puc, 6 μM SPOP–MATH; 50 mM sodium phosphate pH 6.5, 50 mM NaCl, 5 mM DTT, 1% BSA, 0.01% Triton X-100; complete competitive binding model; ± standard deviation of three independent replicates (Table S4)
T1 construct: glutathione S-transferase (GST) (N, cleaved yes); 6X His (N, cleaved yes); made in house; host or cells: E. coli BL-21(DE3)
Excerpt: An Escherichia coli codon-optimized DNA sequence encoding amino acids 205 to 283 of the human Pdx1 sequence (Pdx1-C) in the multiple cloning site of pET49b(+) was purchased from GeneArt (Thermo Fisher). The pET49b(+) backbone encodes for N-terminal glutathione S-transferase and 6X His tags, followed by a 3C protease recognition motif. In all experiments described herein, a mutant containing an exogenous tryptophan at the N terminus of the human Pdx1-C sequence was used for the purposes of quantitation. Mutations in Pdx1-C were generated by Q5 site-directed mutagenesis (New England Biolabs) with primers designed on NEBbasechanger.com according to the manufacturer protocol. Similarly, an E. coli–optimized DNA sequence encoding residues 28 to 166 of human SPOP (SPOP–MATH) was purchased in pET49b(+) from GeneArt. […] A plasmid encoding His–SUMO–SPOP human residues 28 to 359 harboring a tobacco etch virus protease recognition site directly N terminal to the beginning of the native SPOP protein sequence was generated previously ([21]).
All FA experiments were conducted in 50 mM sodium phosphate, pH 6.5, 50 mM sodium chloride, 5 mM DTT, 1% BSA, and 0.01% Triton X-100. In all experiments, the source of fluorescence signal was f-Puc purchased from GenScript, at a final concentration of 40 nM. For direct FA measurements, SPOP–MATH or SPOP28–359 of concentrations between 0.001 and 300 μM was added to wells of 96- or 384-well plates containing f-Puc and buffer. For competition-mode experiments, serial dilutions of each competitor (Pdx1 peptide or recombinant protein) were prepared ranging from ∼0.01 μM to ∼2 mM (concentration range varied based on peptide solubility) in wells of 96- or 384-well plates containing 40 nM f-Puc and 6 μM SPOP–MATH or SPOP28–359. The fluorescence polarization of each well was measured (from which FA was calculated) using either a TECAN Infinite M1000 Pro or BioTek Synergy 4 fluorometer. All experiments were performed with at least three technical replicates. FA data points were fit to a complete competitive binding model ([23]) to determine dissociation constants using in-house Python scripts (see Quantification and statistical analysis).
All titrations were performed in triplicate for rigor. Direct FA titrations were performed to determine the dissociation constants of the fluorescent probe toward SPOP constructs. Direct titration data were fit according to equation 6 in ([54]). Competition mode titration data were fit according to the fitting function in ([23]). Average dissociation constants and standard error from the mean for all constructs from competition experiments may be found in Table S4. The python scripts used in plotting and fitting may be found at https://github.com/idpemery/spop-pdx1.

V5-SPOP in HeLa cells = assay: Immunofluorescence: V5-SPOP localization on coexpression of GFP–Pdx1 variants; type: cell-based; conditions: coexpressed with V5-SPOP, 24 h after transfection, three biological replicates
Procedure: (§1) HeLa cells were cultured under sterile conditions with Dulbecco’s modified Eagle’s medium (DMEM) (Gibco) supplemented with 10% fetal bovine serum and antibiotics/antimycotics (Gibco) (see Table S5 for key reagents and resources). T-REx-293 cells (cat. no. R710-07) were obtained from Invitrogen. Cells were grown on DMEM supplemented with 10% fetal bovine serum (Gibco), GlutaMax (Gibco), and Penicillin-Streptomycin (Gibco) and kept under selection by 5 μg/ml blasticidin. All cells were grown at 37 °C under 5% CO2 and were mycoplasma free at the time the experiments were performed.
(§2) A plasmid encoding full-length human Pdx1 (amino acids 1-283) in pcDNA3.1 with a C-terminal GFP tag was purchased from GenScript. Full-length mouse SPOP (identical to the human sequence) with a V5 epitope tag in pcDNA3 was generated previously ([21]). The coding sequence for full-length mouse SPOP was inserted into pcDNA4/TO/myc (Invitrogen) for the T-REx system. pcDNA3-myc-CUL3 (cat no. 19893) and pcDNA–HA2–ROC1 (Rbx1) (cat no. 19897) were obtained from Addgene. pcDNA3 containing His-ubiquitin was a gift from Wenyi Wei.
For immunofluorescence experiments, 0.5 × 10^6 cells were seeded on borosilicate glass coverslips in 6-well plates. After 24 h, cells were transfected with 400 ng of each plasmid using the Qiagen Effectene transfection reagent according to the manufacturer protocol. 24 h after transfection, the cells were treated with 4% paraformaldehyde in PBS for 30 min at RT. Cells were permeabilized with 0.1% Triton X-100 in PBS (PBST) for 5 min at 21 °C, followed by blocking in 0.5% BSA in PBST for 1 h at 21 °C. Signal from GFP-tagged proteins was observed directly. Cells were stained in primary antibodies diluted in 0.5% BSA in PBST overnight at 4 °C with mouse anti-SC-35 (1:300, ab11826; Abcam) and chicken anti-V5 (1:300, NB600-379; Novus Biologicals). Cells were incubated with secondary antibodies for 2 h at 21 °C. The secondary antibodies used were goat anti-mouse Alexa Fluor 647 (1:250, A-21235; Thermo Fisher) and goat anti-chicken Alexa Fluor 555 (1:250, A-21437; Thermo Fisher). Cells on coverslips were treated with 300 nM 4′,6-diamidino-2-phenylindole (DAPI) for 5 min at 21 °C. Coverslips were mounted on glass slides with ProLong Diamond mounting reagent (Thermo Fisher) and cured before imaging on a Zeiss LSM 880 Upright microscope. All images were analyzed and prepared in Fiji ([53]).
All immunofluorescence data were averaged over three biological replicates. Cells not expressing both Pdx1 and SPOP were excluded from sampling. Raw images were collected in the Zeiss Zen software and then exported for viewing and analysis in Fiji. Nuclei of individual cells were designated manually in Fiji using the DAPI channel as a guide. The cells were binned based on whether SPOP was localized to nuclear speckles (puncta); cells with both diffuse and punctate SPOP signal were binned as “speckled.” The grayscale signal intensity of the green channel (Pdx1–GFP) was averaged over the DAPI-designated nuclear area. Next, the raw GFP intensity data points (one data point per cell analyzed) were plotted to generate a violin plot distribution. The average, minimum, and maximum values are shown by horizontal lines on the plot. Individual data points are also shown for rigor. […] All plotting and statistical tests were performed using in-house python scripts that can be found at https://github.com/idpemery/spop-pdx1.

[2] = test system: SPOP-mediated ubiquitination in T-REx-293 cells; assay: SPOP-mediated ubiquitination of Pdx1 variants (Ni-NTA pulldown, immunoblot); type: cell-based; conditions: SPOP–myc and GFP–Pdx1 coexpressed 24 h, then 20 μM MG132 or DMSO for 4 h, immunoblot (Fig. 6C)
Procedure: We next sought to determine whether SPOP-driven ubiquitination of Pdx1 could occur outside of previously implicated droplets. Given the SPOP relocalization phenotype that we observe in cells that express SPOP and Pdx1, we hypothesized that the ubiquitination activity was occurring in the diffuse nucleoplasm and that optimal activity requires both SB sites. To test this hypothesis, we performed in cell ubiquitination assays with GFP–Pdx1 variants. SPOP–myc and GFP–Pdx1 were coexpressed for 24 h in T-REx-293 cells, followed by a 4-h treatment with 20 μM MG132 or dimethyl sulfoxide. Proteins modified with His-ubiquitin were enriched by pulldown on nickel-nitrilotriacetic acid (Ni-NTA) resin.
as §2
Ubiquitination and Western blots
(§3) T-REx-293 cells (Invitrogen) were seeded at a density of 0.8 × 10^6 per well in 6-well plates (tissue culture–treated plates (cat. no 3516, Corning)). After 24 h, cells were transfected with plasmids encoding Pdx1–GFP, SPOP–myc, His–ubiquitin, HA–Rbx1, and myc–CUL3 (as indicated) using the Qiagen Effectene transfection reagent. 24 h after transfection, the cells were treated with either dimethyl sulfoxide or 20 μM MG132 for 4 h before being harvested. Cells were lysed in buffer A (6 M guanidine HCl, 100 mM sodium phosphate, pH 8.0, and 10 mM imidazole). The lysates were sonicated, cleared, and incubated with Ni-NTA Agarose (Qiagen) for 3 h at RT, followed by 16 h at 4 °C. The beads were washed twice with buffer A and twice with a buffer composed of 1:3 buffer A:buffer T1 (buffer T1: 25 mM Tris HCl, pH 8.0, and 20 mM imidazole). The beads were finally transferred to buffer T1 and then boiled in the SDS-PAGE loading buffer containing 300 mM imidazole. Pdx1 stability assays were performed as described above, except that the cells were not treated with MG132. Cells expressing Pdx1–GFP or a variant were harvested 28 h after transfection, resuspended in 2x SDS-loading dye, and boiled for 5 min before SDS-PAGE analysis.
(§4) All proteins were resolved by SDS-PAGE. Separated proteins were analyzed by immunoblotting using either the ECL or the ECL Select Western blotting detection reagents (Amersham). The antibodies used were mouse anti-Pdx1 used at 1:500 for pulldown or 1:2000 for inputs (clone 26771, MAB2419, R&D Systems), mouse anti-myc (1:250, clone 9E10, Santa Cruz Biotechnology), and rabbit anti-GAPDH (1:8000, clone EPR1689, Abcam). horseradish peroxidase-conjugated secondary antibodies were sourced from Jackson ImmunoResearch Laboratories and used at 1:20,000 dilution (goat anti-rabbit IgG, 111-035-003 and goat anti-mouse, 115-035-003).

[3] = test system: SPOP-dependent turnover in T-REx-293 cells; assay: SPOP-dependent Pdx1 stability (Western blot); type: cell-based; conditions: no MG132, harvested 28 h after transfection, Western blot (Fig. S3D)
Procedure: In a similar experiment, the cells were not treated with a proteasome inhibitor to observe the SPOP-dependent stability of each Pdx1 variant.
as §3, §4

[4] = target: T2, SPOP-MATH (human SPOP residues 28-166) (human, UniProt O43791 28-166); assay: fluorescence polarisation; competition fluorescence anisotropy: competitor (~0.01 μM to ~2 mM) displaces 40 nM f-Puc from 6 μM SPOP-MATH or SPOP28-359; complete competitive binding fit; 50 mM sodium phosphate pH 6.5, 50 mM NaCl, 5 mM DTT, 1% BSA, 0.01% Triton X-100; conditions: both partners purified
T2 construct: N-terminal Gly-Pro-Gly cloning artefact left after 3C protease; speckle-type POZ protein (SPOP), human, MATH domain, residues 28-166; uniformly 15N-labelled for the NMR experiments; also called 15N-SPOP-MATH; source: E. coli BL-21(DE3), purified (Ni-NTA, 3C protease, second Ni-NTA, Sephacryl S100); not shown: GST, N-terminal, cleaved; His6, N-terminal, cleaved

HeLa cells = assay: Immunofluorescence: subcellular localization / phase separation of the protein itself; type: cell-based; conditions: SC-35 nuclear speckle marker
Procedure: as §1, §2
For immunofluorescence experiments, 0.5 × 10^6 cells were seeded on borosilicate glass coverslips in 6-well plates. After 24 h, cells were transfected with 400 ng of each plasmid using the Qiagen Effectene transfection reagent according to the manufacturer protocol. 24 h after transfection, the cells were treated with 4% paraformaldehyde in PBS for 30 min at RT. Cells were permeabilized with 0.1% Triton X-100 in PBS (PBST) for 5 min at 21 °C, followed by blocking in 0.5% BSA in PBST for 1 h at 21 °C. Signal from GFP-tagged proteins was observed directly. […] All images were analyzed and prepared in Fiji ([53]).
All immunofluorescence data were averaged over three biological replicates. […] Next, the raw GFP intensity data points (one data point per cell analyzed) were plotted to generate a violin plot distribution. […]

T2 sequence (O43791 other isoform, or with tags, fused parts or gaps): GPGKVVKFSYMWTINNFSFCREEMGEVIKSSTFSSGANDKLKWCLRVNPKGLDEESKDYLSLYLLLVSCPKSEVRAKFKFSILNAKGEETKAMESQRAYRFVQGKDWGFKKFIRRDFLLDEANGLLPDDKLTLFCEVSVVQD

## Ac-LSASPQPSSVAPRRPQEPR [Pdx1–SBM2]
[1]
  Kd: > 600 µM

## GFP–Pdx1–ΔSBM1: GFP–Pdx1 with deletion of the higher-affinity SBM1 (residues 224–236)
V5-SPOP in HeLa cells
  SPOP relocalization from nuclear speckles by Pdx1 variant: all cells, regardless of GFP–Pdx1–ΔSBM1 levels, contain punctate V5-SPOP
[2]
  ubiquitination of Pdx1 variant: impedes ubiquitination, as shown by no shift from the unmodified band
[2]; listed as Pdx1 lacking SBM1
  ubiquitination of Pdx1 variant: not observably ubiquitinated
[3]
  SPOP-dependent Pdx1 stability: more stable relative to the WT protein

## Ac-GSSSEADEMAKALEAELNDLM [Mock (Fcp1), mock peptide, residues 941-961, negative control, reference compound]
[1]
  KD (binding to SPOP-MATH): no binding

B1: Pdx1-SBM2 peptide (human Pdx1 residues 265-283) (peptide)
peptide: Ac-LSASPQPSSVAPRRPQEPR
notes: pancreatic and duodenal homeobox 1 (Pdx1), human, residues 265-283; also called Pdx1 265-283; source: synthetic peptide (Tufts University Core Facility, HPLC purified)
[4]
  Kd: 630 µM

B2: V5-SPOP: full-length mouse SPOP (identical to the human sequence) with a V5 epitope tag (protein, UniProt Q6ZWS8 1-374, looked up)
chain: MSRVPSPPPPAEMSSGPVAESWCYTQIKVVKFSYMWTINNFSFCREEMGEVIKSSTFSSGANDKLKWCLRVNPKGLDEESKDYLSLYLLLVSCPKSEVRAKFKFSILNAKGEETKAMESQRAYRFVQGKDWGFKKFIRRDFLLDEANGLLPDDKLTLFCEVSVVQDSVNISGQNTMNMVKVPECRLADELGGLWENSRFTDCCLCVAGQEFQAHKAILAARSPVFSAMFEHEMEESKKNRVEINDVEPEVFKEMMCFIYTGKAPNLDKMADDLLAAADKYALERLKVMCEDALCSNLSVENAAEILILADLHSADQLKTQAVDFINYHASDVLETSGWKSMVVSHPHLVAEAYRSLASAQCPFLGPPRKRLKQS
modifications: full-length V5 tag
HeLa cells
  V5-SPOP localization when expressed alone: localizes to nuclear speckles

B3: W131G: substrate binding-impaired SPOP mutant (protein, UniProt O43791 1-374, looked up, variant W131G)
Speckle-type POZ protein: MSRVPSPPPPAEMSSGPVAESWCYTQIKVVKFSYMWTINNFSFCREEMGEVIKSSTFSSGANDKLKWCLRVNPKGLDEESKDYLSLYLLLVSCPKSEVRAKFKFSILNAKGEETKAMESQRAYRFVQGKDGGFKKFIRRDFLLDEANGLLPDDKLTLFCEVSVVQDSVNISGQNTMNMVKVPECRLADELGGLWENSRFTDCCLCVAGQEFQAHKAILAARSPVFSAMFEHEMEESKKNRVEINDVEPEVFKEMMCFIYTGKAPNLDKMADDLLAAADKYALERLKVMCEDALCSNLSVENAAEILILADLHSADQLKTQAVDFINYHASDVLETSGWKSMVVSHPHLVAEAYRSLASAQCPFLGPPRKRLKQS
modifications: V5 tag
[2]
  ubiquitination of Pdx1 variant: lack of any shift of the Pdx1 band
